ChEMBL document CHEMBL1201862, “PubChem BioAssay data set” (2004)
Calls of active or inactive are those of the source.

Experiments:
Nonstructural protein 1 = Nonstructural protein 1 (Influenza A virus, UniProt Q194T2); assay type: functional, Influenza A virus (A/California/07/2009(H1N1))
[1] = C. albicans growth with fluconazole, confirmation, fluorescence, retest (AID 2467); assay type: functional, cell-based
[2] = biological target: Sphingosine 1-phosphate receptor 2 (Homo sapiens, UniProt O95136); experiment: Dose Response Cell Based Assay for Antagonists of the S1P2 Receptor. [Related pubchem assays: 856, 736 ]; assay type: functional
BJ [3] = experiment: cytotoxicity toward BJ-TERT fibroblasts, dose response, cell-based, RAS-independent, luminescence (AID 1933); assay type: functional; conditions: Homo sapiens
[4] = biological target: Eukaryotic translation initiation factor 4E (Mus musculus, UniProt P63073); experiment: eIF4E–eIF4G protein interaction inhibitors, dose response, biochemical, TR-FRET (AID 855); assay type: functional;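 note: potency for disrupting eIF4E binding to eIF4GI seen as loss of FRET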
[5] = biological target: T1, Rac GTPase-activating protein 1 (Homo sapiens, UniProt Q9H0H5); experiment: MgcRacGAP GTPase-activating activity inhibitors, confirmation, biochemical, ADP Hunter fluorescence, primary and confirmatory (AID 624330); assay type: functional
T1 sequence (Q9H0H5 whole entry): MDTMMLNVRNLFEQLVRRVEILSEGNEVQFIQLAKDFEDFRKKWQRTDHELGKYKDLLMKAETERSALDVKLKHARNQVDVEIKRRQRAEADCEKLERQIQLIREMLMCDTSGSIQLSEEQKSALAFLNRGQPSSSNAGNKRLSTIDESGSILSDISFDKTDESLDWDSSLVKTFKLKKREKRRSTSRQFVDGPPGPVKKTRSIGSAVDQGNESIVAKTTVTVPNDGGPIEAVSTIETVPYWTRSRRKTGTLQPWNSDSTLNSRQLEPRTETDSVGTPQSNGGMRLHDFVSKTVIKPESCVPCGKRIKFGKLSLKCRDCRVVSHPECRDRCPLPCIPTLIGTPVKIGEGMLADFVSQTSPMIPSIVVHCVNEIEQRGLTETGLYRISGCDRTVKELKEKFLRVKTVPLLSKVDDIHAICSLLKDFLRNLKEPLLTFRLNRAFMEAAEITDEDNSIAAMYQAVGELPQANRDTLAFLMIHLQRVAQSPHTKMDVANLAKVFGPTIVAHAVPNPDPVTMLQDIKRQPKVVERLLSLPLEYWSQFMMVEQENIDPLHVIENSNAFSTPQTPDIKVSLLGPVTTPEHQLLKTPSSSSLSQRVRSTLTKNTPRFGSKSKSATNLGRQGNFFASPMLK

BJ [6] = experiment: cytotoxicity toward Ras-transformed BJeLR fibroblasts, dose response, cell-based, alamar blue fluorescence, cherrypicked samples (AID 2631); assay type: functional; conditions: Homo sapiens;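 note: confirmatory dose-response assay in RAS-dependent BJ fibroblasts engineered with TERT, LT and ST, with cytotoxicity read by fluorescence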
[7] = HeLa cell cytotoxicity, dose response, cytotoxicity control for MgcRacGAP inhibitor project (AID 624300); assay type: functional
[8] = cytotoxicity toward DRD oncogenic fibroblasts, dose response, cell-based, non-viral oncogenic, luminescence (AID 1934); assay type: functional; conditions: Homo sapiens
Streptococcus = experiment: Group A Streptococcus viability loss, dose response, counter-screen for streptokinase expression inhibitor project, luminescence, BacTiterGlo (AID 1915); assay type: functional, organism-based;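 note: potency for reduction of bacterial viability or growth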
Streptokinase A = biological target: T2, Streptokinase A (Streptococcus pyogenes serotype M1, UniProt P10520); experiment: S. pyogenes streptokinase expression inhibitors, potency, dose response, plasminogen activation absorbance, OD405 (AID 1914); assay type: functional, Streptococcus pyogenes M1 GAS;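 note: secreted streptokinase activity via plasminogen activation per viability signal from cell pellet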
T2 sequence (P10520 whole entry): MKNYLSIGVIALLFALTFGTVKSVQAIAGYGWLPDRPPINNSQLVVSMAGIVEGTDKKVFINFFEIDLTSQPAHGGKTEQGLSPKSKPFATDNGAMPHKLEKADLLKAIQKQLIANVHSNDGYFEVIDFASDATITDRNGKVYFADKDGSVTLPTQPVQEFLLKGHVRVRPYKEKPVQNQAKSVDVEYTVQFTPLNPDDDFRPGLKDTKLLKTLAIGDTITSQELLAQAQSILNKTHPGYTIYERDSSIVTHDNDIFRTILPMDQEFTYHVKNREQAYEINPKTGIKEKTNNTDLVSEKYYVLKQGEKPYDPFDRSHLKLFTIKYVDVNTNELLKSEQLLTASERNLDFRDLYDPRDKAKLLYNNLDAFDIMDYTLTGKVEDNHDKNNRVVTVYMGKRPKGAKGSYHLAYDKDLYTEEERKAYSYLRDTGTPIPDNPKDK

[9] = test system: Streptococcus sp. 'group A'; experiment: growth inhibition of control SK(-) GAS strain, dose response, counter-screen for streptokinase expression inhibitor project, luminescence, kanamycin, BacTiterGlo, confirmation (AID 1900); assay type: functional, organism-based
[10] = growth suppression of PTEN-null colon cells, dose response, cell-based, HCT116 PTEN knockout (AID 1047); assay type: functional;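 note: HCT116 colon tumor cells with PTEN knocked out; cells exposed to compound for 60 hours before readout; potency for loss of cell viability measured by luminescence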
[11] = cytotoxicity in HEK-293T cells, dose response, cytotoxicity control for TCR NF-kB inhibitor project, luminescence, T-cell screen hits (AID 489026); assay type: functional, cell-based;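 note: cells exposed to compound about 14 hours before the viability readout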
BJ [12] = experiment: cells; assay type: functional, cell-based; conditions: Homo sapiens
BJ [13] = experiment: cytotoxicity toward BJ-TERT-LT-ST fibroblasts, dose response, cell-based, RAS-independent, luminescence (AID 1935); assay type: functional; conditions: Homo sapiens;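 note: BJ fibroblasts immortalized with TERT plus LT and ST oncogenes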
[14] = growth suppression of beta-catenin-knockout colon cells, dose response, cell-based, HCT116, human colon tumor (AID 1045); assay type: functional;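 note: HCT116 colon tumor cells with beta catenin knocked out; cells exposed to compound for 60 hours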
[15] = NIH-3T3 fibroblast cytotoxicity, dose response, cytotoxicity control, cell-based, fluorescence, Alamar Blue, secondary assay (AID 2327); assay type: functional;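 note: NIH-3T3 mouse fibroblasts cultured with fluconazole at 8 µg/mL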
Bcl-2-related protein A1 [16] = biological target: T3, Bcl-2-related protein A1 (Mus musculus, UniProt Q07440); experiment: Bfl-1 binding inhibitors, SAR follow-up, biochemical, fluorescence polarization (AID 1070)
T3 sequence (Q07440 whole entry): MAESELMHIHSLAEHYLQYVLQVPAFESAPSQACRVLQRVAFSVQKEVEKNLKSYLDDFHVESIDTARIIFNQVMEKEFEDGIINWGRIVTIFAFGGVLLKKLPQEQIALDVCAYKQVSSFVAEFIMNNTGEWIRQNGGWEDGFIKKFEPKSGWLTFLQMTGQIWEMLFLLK

Bcl-2-related protein A1 [17] = biological target: T3, Bcl-2-related protein A1; experiment: Bfl-1 inhibitors blocking BH3 peptide binding, confirmation, biochemical, TR-FRET, mouse Bfl-1 (AID 621);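 note: TR-FRET binding of GST-Bfl-1 to FITC-labelled Bid peptide via terbium antibody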
[18] = biological target: Glyceraldehyde-3-phosphate dehydrogenase (Homo sapiens, UniProt P04406)
[19] = Luminescence Cell-Based Dose Confirmation HTS to Identify Inhibitors of Polyadenylation.; assay type: functional
[20] = biological target: Photoreceptor-specific nuclear receptor (Homo sapiens, UniProt Q9Y5X4); experiment: NR2E3 inverse agonists, dose response, biochemical, TR-FRET (AID 463256); assay type: functional
[21] = biological target: Peroxisome proliferator-activated receptor gamma/Nuclear receptor corepressor 2 (Homo sapiens, UniProt P37231+Q9Y618); experiment: Counterscreen for NR2E3 inverse agonists: TR-FRET-based biochemical high throughput dose response assay to identify inverse agonists of the interaction between peroxisome proliferator-activated receptor gamma (PPARg) and nuclear receptor co-repressor 2 (NCOR2).; assay type: functional
[22] = Glucagon-like peptide 1 release potency, NCI-H716 cell line, dose-response, half-maximal inhibitory concentration (AID 1117344); assay type: functional, cell-based
[23] = half-maximal inhibitory concentration for glucagon-like peptide-1 release, STC-1 cell line, dose-response (AID 1117345); assay type: functional, cell-based
[24] = Dose-response inhibition of insulin secretion in a rat insulinoma line at 5 mM glucose (AID 1117331); assay type: functional, cell-based; conditions: INS-1E
[25] = biological target: E3 ubiquitin-protein ligase Mdm2 (Homo sapiens, UniProt Q00987); experiment: enhancers of MDM2-luciferase reporter signal, concentration-effect titration, project on inhibitors of MDM2 ubiquitin ligase, cellular assay, luminescent readout, 384-well plate format (AID 1394); assay type: functional;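 note: MDM2 E3 inhibitors raise luminescence so EC50 is for signal enhancement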
Chain of E3 ubiquitin-protein ligase Mdm2 (Q00987 whole entry): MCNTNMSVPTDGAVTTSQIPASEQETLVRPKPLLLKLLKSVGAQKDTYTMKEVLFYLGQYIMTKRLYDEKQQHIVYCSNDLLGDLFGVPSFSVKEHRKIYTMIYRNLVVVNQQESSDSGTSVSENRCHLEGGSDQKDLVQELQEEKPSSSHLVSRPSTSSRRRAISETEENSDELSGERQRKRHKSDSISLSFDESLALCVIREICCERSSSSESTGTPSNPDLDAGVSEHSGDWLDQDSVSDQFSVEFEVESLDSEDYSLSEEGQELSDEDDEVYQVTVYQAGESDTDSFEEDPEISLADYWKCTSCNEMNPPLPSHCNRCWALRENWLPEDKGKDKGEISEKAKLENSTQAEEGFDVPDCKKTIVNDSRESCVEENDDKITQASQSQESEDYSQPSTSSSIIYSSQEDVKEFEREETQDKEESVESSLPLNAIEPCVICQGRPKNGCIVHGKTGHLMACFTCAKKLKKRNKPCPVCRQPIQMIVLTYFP

Chain of Glyceraldehyde-3-phosphate dehydrogenase (P04406 whole entry): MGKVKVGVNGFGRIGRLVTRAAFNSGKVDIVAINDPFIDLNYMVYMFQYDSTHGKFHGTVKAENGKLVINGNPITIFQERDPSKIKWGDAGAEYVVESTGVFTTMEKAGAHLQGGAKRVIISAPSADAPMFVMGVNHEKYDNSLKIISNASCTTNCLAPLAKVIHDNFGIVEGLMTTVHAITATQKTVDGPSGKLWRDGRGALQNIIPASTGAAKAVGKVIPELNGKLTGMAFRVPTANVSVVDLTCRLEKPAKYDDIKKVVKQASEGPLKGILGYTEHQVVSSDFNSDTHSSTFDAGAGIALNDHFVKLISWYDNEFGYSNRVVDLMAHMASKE
Chain of Sphingosine 1-phosphate receptor 2 (O95136 whole entry): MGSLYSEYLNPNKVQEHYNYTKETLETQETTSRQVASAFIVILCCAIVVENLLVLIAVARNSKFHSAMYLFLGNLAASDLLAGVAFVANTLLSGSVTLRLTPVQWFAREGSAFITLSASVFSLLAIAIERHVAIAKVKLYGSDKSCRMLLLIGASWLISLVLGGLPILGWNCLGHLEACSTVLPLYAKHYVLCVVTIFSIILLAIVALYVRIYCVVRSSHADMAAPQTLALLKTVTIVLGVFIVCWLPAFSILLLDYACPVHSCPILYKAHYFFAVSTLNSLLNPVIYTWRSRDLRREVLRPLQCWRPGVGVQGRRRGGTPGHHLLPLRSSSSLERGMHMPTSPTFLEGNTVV
Chain of Peroxisome proliferator-activated receptor gamma/Nuclear receptor corepressor 2 (P37231 whole entry): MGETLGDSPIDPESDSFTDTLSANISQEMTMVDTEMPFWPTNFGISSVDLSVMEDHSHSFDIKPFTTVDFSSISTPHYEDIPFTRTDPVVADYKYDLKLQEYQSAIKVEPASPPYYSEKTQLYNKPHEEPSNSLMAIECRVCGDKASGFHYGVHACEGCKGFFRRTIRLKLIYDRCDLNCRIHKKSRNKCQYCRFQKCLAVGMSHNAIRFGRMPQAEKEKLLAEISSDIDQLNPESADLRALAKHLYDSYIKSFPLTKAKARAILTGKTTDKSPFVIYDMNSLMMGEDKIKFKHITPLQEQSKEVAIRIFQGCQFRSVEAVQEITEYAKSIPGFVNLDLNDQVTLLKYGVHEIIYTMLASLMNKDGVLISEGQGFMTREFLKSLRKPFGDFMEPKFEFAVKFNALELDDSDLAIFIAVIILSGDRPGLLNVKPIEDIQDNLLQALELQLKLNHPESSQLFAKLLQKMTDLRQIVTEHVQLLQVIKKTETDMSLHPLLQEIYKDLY
Chain of Peroxisome proliferator-activated receptor gamma/Nuclear receptor corepressor 2 (Q9Y618 whole entry): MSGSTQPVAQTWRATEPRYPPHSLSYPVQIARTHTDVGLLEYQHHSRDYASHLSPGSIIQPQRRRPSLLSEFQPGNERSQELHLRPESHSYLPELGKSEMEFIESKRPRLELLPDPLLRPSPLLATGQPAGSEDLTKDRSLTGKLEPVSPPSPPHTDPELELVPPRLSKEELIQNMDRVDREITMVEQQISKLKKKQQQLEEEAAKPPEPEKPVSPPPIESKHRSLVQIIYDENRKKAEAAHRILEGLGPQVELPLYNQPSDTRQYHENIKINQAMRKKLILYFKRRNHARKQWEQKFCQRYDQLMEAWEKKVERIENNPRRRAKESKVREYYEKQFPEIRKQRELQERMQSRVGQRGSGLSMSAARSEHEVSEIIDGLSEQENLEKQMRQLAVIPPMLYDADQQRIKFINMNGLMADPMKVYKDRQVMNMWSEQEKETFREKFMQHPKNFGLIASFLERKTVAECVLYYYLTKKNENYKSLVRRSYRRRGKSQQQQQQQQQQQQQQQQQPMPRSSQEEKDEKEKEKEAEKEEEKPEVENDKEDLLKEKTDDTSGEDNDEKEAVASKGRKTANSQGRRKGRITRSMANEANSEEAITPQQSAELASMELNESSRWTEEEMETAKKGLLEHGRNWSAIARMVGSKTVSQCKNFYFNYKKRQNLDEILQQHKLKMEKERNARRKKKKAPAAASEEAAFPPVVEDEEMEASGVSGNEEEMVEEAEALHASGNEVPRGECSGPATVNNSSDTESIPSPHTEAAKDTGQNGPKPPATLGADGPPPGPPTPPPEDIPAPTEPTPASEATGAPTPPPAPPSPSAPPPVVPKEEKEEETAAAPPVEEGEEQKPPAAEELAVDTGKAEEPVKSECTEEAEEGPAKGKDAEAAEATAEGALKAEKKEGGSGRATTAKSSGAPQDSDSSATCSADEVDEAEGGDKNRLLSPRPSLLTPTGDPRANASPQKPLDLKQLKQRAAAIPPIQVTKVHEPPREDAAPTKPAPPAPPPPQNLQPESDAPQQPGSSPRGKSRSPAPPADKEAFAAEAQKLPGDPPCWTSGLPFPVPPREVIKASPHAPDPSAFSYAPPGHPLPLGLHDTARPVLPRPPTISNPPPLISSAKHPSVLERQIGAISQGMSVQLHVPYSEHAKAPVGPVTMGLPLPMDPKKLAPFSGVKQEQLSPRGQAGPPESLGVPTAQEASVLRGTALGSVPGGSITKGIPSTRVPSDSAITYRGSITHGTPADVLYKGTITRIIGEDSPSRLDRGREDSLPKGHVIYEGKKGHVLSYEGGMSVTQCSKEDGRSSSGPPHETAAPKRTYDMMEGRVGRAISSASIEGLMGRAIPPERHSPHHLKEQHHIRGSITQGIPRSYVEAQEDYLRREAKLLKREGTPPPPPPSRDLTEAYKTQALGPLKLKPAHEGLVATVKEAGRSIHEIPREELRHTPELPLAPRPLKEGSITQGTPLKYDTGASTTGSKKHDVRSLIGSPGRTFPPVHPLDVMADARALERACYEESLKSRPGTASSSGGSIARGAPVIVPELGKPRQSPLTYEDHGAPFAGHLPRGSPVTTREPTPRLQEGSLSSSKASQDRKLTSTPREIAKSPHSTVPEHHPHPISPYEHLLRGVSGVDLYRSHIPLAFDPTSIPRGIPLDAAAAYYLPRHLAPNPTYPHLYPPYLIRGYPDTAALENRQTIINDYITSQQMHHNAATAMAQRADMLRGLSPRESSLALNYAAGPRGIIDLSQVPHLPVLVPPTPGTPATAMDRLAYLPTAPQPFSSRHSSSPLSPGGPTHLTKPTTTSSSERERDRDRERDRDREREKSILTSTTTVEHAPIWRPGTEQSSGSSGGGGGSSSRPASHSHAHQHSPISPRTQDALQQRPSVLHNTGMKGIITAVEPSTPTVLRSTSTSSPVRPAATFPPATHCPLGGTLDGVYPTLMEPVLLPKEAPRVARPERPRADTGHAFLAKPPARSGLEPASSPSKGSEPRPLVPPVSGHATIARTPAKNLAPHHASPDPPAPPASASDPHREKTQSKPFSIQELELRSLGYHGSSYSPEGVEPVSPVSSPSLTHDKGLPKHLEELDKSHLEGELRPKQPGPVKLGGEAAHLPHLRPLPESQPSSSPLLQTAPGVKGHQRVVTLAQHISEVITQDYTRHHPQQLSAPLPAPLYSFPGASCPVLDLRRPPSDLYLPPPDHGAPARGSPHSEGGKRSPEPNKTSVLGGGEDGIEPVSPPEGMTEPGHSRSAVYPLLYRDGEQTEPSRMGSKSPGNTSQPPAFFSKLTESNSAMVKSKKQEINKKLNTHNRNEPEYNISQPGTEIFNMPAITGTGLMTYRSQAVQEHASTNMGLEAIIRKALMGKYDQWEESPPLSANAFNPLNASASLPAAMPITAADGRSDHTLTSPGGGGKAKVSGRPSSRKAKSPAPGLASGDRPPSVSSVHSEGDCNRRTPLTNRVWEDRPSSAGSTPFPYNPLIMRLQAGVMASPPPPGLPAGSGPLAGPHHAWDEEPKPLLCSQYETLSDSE
Chain of Eukaryotic translation initiation factor 4E (P63073 whole entry): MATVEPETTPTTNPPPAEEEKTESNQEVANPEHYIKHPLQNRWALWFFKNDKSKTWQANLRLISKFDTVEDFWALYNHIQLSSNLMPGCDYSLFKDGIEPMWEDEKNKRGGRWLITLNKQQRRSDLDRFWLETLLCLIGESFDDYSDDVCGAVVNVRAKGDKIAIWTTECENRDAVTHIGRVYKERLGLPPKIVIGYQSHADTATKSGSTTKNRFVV
Chain of Nonstructural protein 1 (Q194T2 whole entry): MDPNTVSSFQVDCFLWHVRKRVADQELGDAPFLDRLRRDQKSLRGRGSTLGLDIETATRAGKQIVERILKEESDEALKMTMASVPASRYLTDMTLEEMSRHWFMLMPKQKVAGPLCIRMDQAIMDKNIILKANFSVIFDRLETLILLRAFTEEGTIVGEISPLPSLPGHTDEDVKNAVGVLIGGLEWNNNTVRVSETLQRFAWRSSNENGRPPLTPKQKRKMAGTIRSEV

CCN1/C(=C/c2ccc3ccccc3[n+]2CC)C=Cc2ccccc21
IC50 (Nonstructural protein 1): 12.8 µM (active)
EC50 [1]: 0.639 µM (active)
IC50 [2]: 3.1 µM (active)
EC50 (BJ [3]): 1.21 µM (active)
IC50 [4]: 33.8 µM (inactive)
IC50 [5]: 46.5 µM (active)
EC50 (BJ [6]): 1.89 µM (active)
CC50 [7]: 19 µM (active)
EC50 [8]: 3.27 µM (active)
EC50 (Streptococcus): 35 µM (active)
EC50 (Streptokinase A): > 150 µM (not active)
EC50 [9]: 4.74 µM (active)
EC50 [10]: 0.249 µM (active)
IC50 [11]: 33.1 µM (inactive)
EC50 (BJ [12]): 2.73 µM (active)
EC50 (BJ [13]): 3.1 µM (inconclusive)
EC50 [14]: 0.167 µM (active)
EC50 [15]: 12 µM (active)

O=C1C(Cl)=C(Cl)C(=O)N1c1ccnc(Cl)c1
IC50 (Bcl-2-related protein A1 [16]): > 100 µM (not active)
IC50 (Bcl-2-related protein A1 [17]): 39.9 µM (active)
IC50 [18]: > 100 µM (not active)

O=C(O)c1sc2cc(C(F)(F)F)cnc2c1-c1ccco1
IC50 [2]: > 30 µM (not active)

CC1CN(C2=C(Cl)C(=O)N(c3ccc(Cl)c(Cl)c3)C2=O)CCN1 (configuration not stated)
IC50 (Bcl-2-related protein A1 [16]): 6.96 µM (active)
IC50 (Bcl-2-related protein A1 [17]): 1.95 µM (active)
IC50 [18]: > 100 µM (not active)

COc1ccc2no[n+]([O-])c2c1
EC50 [19]: > 120 µM (not active)

Cc1cc2c(s1)c1cnn(CC(=O)NCCc3ccccc3)c(=O)c1n2C
IC50 [20]: 2.52 µM (active)
IC50 [21]: 2.65 µM (active)

Cc1ccc(O)cc1 [p-CRESOL]
IC50 [22]: > 40 µM (inactive)
IC50 [23]: > 40 µM (inactive)
IC50 [24]: > 33.3 µM (inactive)

COc1ccc2[nH]c(C(=O)O)c(CCNC(C)=O)c2c1
EC50 [25]: 0.39 µM (not active)
